Source: US20240091294A1, “Extract of Top Growth of Holy Basil, and Cosmetic or Dermatological Compositions Containing Same” (Laboratoires Expanscience, priority 2021, published 2024)

Legend:
normal human fibroblasts [1] = experiment: Menadione-induced ROS production in fibroblasts; assay type: cell-based; details: 10 mM, 24 h, Menadione 200 μM
Procedure: (§1) Normal human keratinocytes, on the one hand, and normal human fibroblasts, on the other, were treated for 24 hours with the 0.001% and 0.005% dry matter (dm) holy basil extract obtained according to Example 1 or with 10 mM N-Acetyl Cysteine (NAC), a ROS scavenger molecule used as an antioxidant reference. […] ROS were labeled with the CellRox® probe; intracellular fluorescence, proportional to the amount of ROS, was measured. Results were statistically analyzed using a one-factor ANOVA, followed by a Dunnett's test.

[2] = system: normal human keratinocytes; experiment: Menadione-induced ROS production in keratinocytes; assay type: cell-based; details: 10 mM, 24 h, Menadione 50 μM
Procedure: as §1

normal human fibroblasts [3] = experiment: Glutathione (GSH) content in fibroblasts under menadione stress; assay type: cell-based; details: 10 mM, 24 h; Menadione 25 μM 4 h
Procedure: Normal human fibroblasts were treated for 24 hours with 0.001% and 0.005% dm holy basil extract obtained according to Example 1 or with the antioxidant reference, 10 mM NAC. Oxidative stress was then induced by 4-hour incubation in the presence of 25 μM menadione. GSH stock was monitored using the fluorescent probe Monochlorobimane (Mbi); intracellular fluorescence, proportional to the amount of GSH, was measured.

[4] = system: normal human epidermal keratinocytes; experiment: γH2AX expression (DNA double-strand breaks) in keratinocytes under camptothecin stress; assay type: cell-based; details: reference, 24 h pre-incubation; camptothecin 1 h
Procedure: Normal human epidermal keratinocytes were pre-incubated for 24 hours in the presence of the holy basil extract obtained in Example 1 at 0.001% and 0.005% dm or the reference nicotinamide, prior to 1-hour exposure to camptothecin. Camptothecin is a genotoxic compound, a toposiomerase I inhibitor, used for the induction of DNA double-strand breaks. Double-strand breaks were detected by immunostaining of γH2AX (phosphorylation of histone H2AX which intervenes early in response to double-strand breaks) and quantified by image analysis. Results were statistically analyzed using an ANOVA followed by a Tukey test.

[5] = system: normal human keratinocytes; experiment: H2O2-induced ROS production in normal human keratinocytes; assay type: cell-based; details: 24 h, H2O2 100 μM 20 min
Procedure: Quercetin at 10 μM or Vitamin C at 500 μM, before incorporation of the H2DCF-DA probe. Keratinocytes were then stimulated with 100 μM hydrogen peroxide (H2O2) for 20 minutes. ROS production was assessed by measuring the fluorescence emitted by the probe on contact with ROS. Results were statistically analyzed using a one-way ANOVA followed by a Tukey test.

[6] = system: normal human epidermal keratinocytes; experiment: Aquaporin-3 production in keratinocytes (immunostaining); assay type: cell-based; details: reference, 24 h
Procedure: Normal human epidermal keratinocytes were incubated for 24 hours in the presence of the holy basil extract obtained in Example 1 at 0.001% and 0.005% dm or retinoic acid, positive reference. Aquaporin-3 expression was assessed by immunostaining and quantified by image analysis.

reconstructed epidermis = experiment: IL1α produced by PMA-stimulated reconstructed epidermis; assay type: cell-based, human; details: systemic, 24 h pre-incubation, PMA 0.5 μg/ml 24 h
Procedure: […] After 24 hours pre-incubation, the epidermis was stimulated with 0.5 μg/mL PMA and incubated again for 24 hours.
Culture supernatants were collected, an IL1α assay was performed on the one hand and, on the other, these supernatants (conditioned media) were plated onto cultures of normal human dermal fibroblasts.
Results were statistically analyzed using an ANOVA followed by a Tukey test.

[7] = system: normal human keratinocytes; experiment: IL8 produced by keratinocytes under PMA-induced inflammatory stress (ELISA); assay type: cell-based; details: 24 h pre-incubation, PMA 10 μg/ml 24 h
Procedure: Normal human keratinocytes were pre-incubated for 24 hours in the presence of holy basil extract obtained according to Example 1 at 0.001%, 0.005% or 0.01% dm or dexamethasone at 0.1 μM, an anti-inflammatory reference. The cells were then stimulated by 24-hour treatment in the presence of 10 μg/mL PMA (Phorbol-Myristate-Acetate).
At the end of treatment, the IL8 produced was quantified by ELISA assay in the culture supernatants.
Results were analyzed statistically using the Student t-test.

[8] = system: normal human dermal fibroblasts; experiment: Gene expression of dermal matrix markers in fibroblasts (qPCR); assay type: cell-based; details: 5 ng/ml, 48 h
Procedure: Normal human dermal fibroblasts were incubated for 48 hours in the presence of holy basil extract obtained according to Example 1 at 0.001% and 0.005% dm or TGFβ1 at 5 ng/ml, the positive assay reference.
Gene expression of Collagen I, Elastin, Dermatopontin and MMP1 (Matrix-Metalloproteinase-1) was assessed by real-time quantitative PCR.
Results were statistically analyzed using a one-factor analysis of variance (ANOVA), followed by a Dunnett's post-test.

normal human fibroblasts [9] = experiment: Lipid peroxidation in fibroblasts under cumene hydroperoxide stress; assay type: cell-based; details: 200 μM, 24 h, Cumene 50 μM
Procedure: (§2) Normal human keratinocytes, on the one hand, and normal human fibroblasts, on the other, were treated for 24 hours with the 0.001% and 0.005% dm holy basil extract obtained according to example 1 or with the antioxidant reference, vitamin E at 200 μM. Oxidative stress was then induced by incubation for 1 hour in the presence of cumene hydroperoxide at 200 or 50 μM.
(§3) Results were statistically analyzed using a one-way ANOVA followed by a Tukey test.

[10] = system: normal human keratinocytes; experiment: Lipid peroxidation in keratinocytes under cumene hydroperoxide stress; assay type: cell-based; details: 200 μM, 24 h, Cumene 200 μM
Procedure: as §2, §3

In the case of `CC(=O)N[C@@H](CS)C(=O)O` [NAC, N-Acetyl Cysteine], the “ROS (Arbitrary units)” value (normal human fibroblasts [1]) is reported as 3114 ± 14.2 Arbitrary units, the inhibition at 10000 µM (normal human fibroblasts [1]; Homo sapiens, Fibroblast) is reported as 50% and the “ROS (Arbitrary units)” value [2] is reported as 2490 ± 94.3 Arbitrary units. For the same molecule, the inhibition at 10000 µM ([2]; Homo sapiens, Keratinocyte) was 100%, the “GSH (Arbitrary units)” value (normal human fibroblasts [3]) was 4997.7 ± 947.2 Arbitrary units and the “Increase of GSH” value (normal human fibroblasts [3]) was 44%.

`NC(=O)c1cccnc1` [Nicotinamide, nicotinamide] was tested, and the “Inhibition of γH2AX expression” value [4] was −106% and the “γH2AX, Cy5 (Intensity)” value [4] was 3052.8 Intensity.

With `O=c1c(O)c(-c2ccc(O)c(O)c2)oc2cc(O)cc(O)c12` [Quercetin] the “ROS (Fluorescence units)” value ([5]; 10 μM) was 17453.8 ± 2880.6 Fluorescence units and the inhibition at 10 µM ([5]; Homo sapiens, Keratinocyte, 10 μM) was 85%.

For `CC1=C(/C=C/C(C)=C/C=C/C(C)=C/C(=O)O)C(C)(C)CCC1` [Retinoic acid, retinoic acid], the “Aquaporin-3 (% of positive cells)” value [6] was 0.323 ± 0.004 % of positive cells and the “Increase of Aquaporin-3” value [6] was “+45%”.

In the case of `O=C1O[C@H]([C@@H](O)CO)C(O)=C1O` [Vitamin C], the “ROS (Fluorescence units)” value ([5]; 500 μM) is reported as 7165.2 ± 586.2 Fluorescence units and the inhibition at 500 µM ([5]; Homo sapiens, Keratinocyte, 500 μM) is reported as 102%.

`C[C@@H]1C[C@H]2[C@@H]3CCC4=CC(=O)C=C[C@]4(C)[C@@]3(F)[C@@H](O)C[C@]2(C)[C@@]1(O)C(=O)CO` [dexamethasone] was tested, and the “Interleukine-1 alpha” value (reconstructed epidermis; 10 μM) was 334 ± 41 pg/mL, the inhibition at 10 µM (reconstructed epidermis; Homo sapiens, read-out: Inhibition of IL1α release) was 48% and the “IL8” value ([7]; 0.1 μM) was 4194.4 ± 814.1 pg/mL. It also gave an inhibition at 0.1 µM ([7]; Homo sapiens, Keratinocyte, read-out: Inhibition of IL8 production) of 40%.

For “TGFB1: TGFβ1 at 5 ng/ml, the positive assay reference”, the “Collagen I gene expression (Relative quantity)” value [8] was 10.86 ± 4.17, the “Dermatopontin gene expression (Relative quantity)” value [8] was 43.17 ± 5.97 and the “Elastin gene expression (Relative quantity)” value [8] was 67.5 ± 20.55. For the same molecule, the “MMP1 gene expression (Relative quantity)” value [8] was 0.33 ± 0.13, the “Collagen I gene expression (% of induction)” value ([8]; vs control cells) was “+786%” and the “Dermatopontin gene expression (% of induction)” value ([8]; vs control cells) was “+5001%”. The “Elastin gene expression (% of induction)” value ([8]; vs control cells) was “+8148%” and the “MMP1 gene expression (% of induction)” value ([8]; vs control cells) was −65%.

For vitamin E, the “Inhibition of lipid peroxidation” value (normal human fibroblasts [9]) was 71%, the “Peroxidized lipids (Arbitrary units)” value (normal human fibroblasts [9]) was 11413.4 ± 69.4 Arbitrary units and the “Inhibition of lipid peroxidation” value [10] was 93%. The “Peroxidized lipids (Arbitrary units)” value [10] was 4485.3 ± 43.3 Arbitrary units.
